What all share (format): cell-based
Test [1] relates to A549 cells. Nature of the test: Cell vitality reflected by cellular traction force in A549 cells treated with 5-FU. The conditions noted are these: for time of significant decrease in cellular traction force: FIG. 11C. On the procedure: (§1) Specifically, in the present embodiment, non-small cell lung cancer A549 cells are cultured on multiple cellular traction force detection devices, and then are treated with various doses of cell proliferation inhibitor 5-fluorouracil (5-FU). Subsequently, the cellular traction forces at different time are monitored by using the cellular identification system described in the twentieth embodiment. Cell proliferation and cytotoxicity are monitored using the CCK-8 kit, with cell vitality measured by the MTT assay serving as a control group, yielding the data for FIGS. 11B and 11C.

Test [2] concerns Breast cancer cells MCF-7 tumor cell aggregates. Nature of the test: 5-Fu drug sensitivity of tumor cell aggregates on the cellular traction force detection device. To be noted: MCF-7 aggregates, 200 μM, cultured for one day, FIGS. 13A and 13B. On the procedure:
S1, Generation of tumor cell aggregates: FN 50 μg/mL is coated on the top of the micro-/nano-pillars of the cellular traction force detection device and sterilized with UV light for 30 minutes. Breast cancer cells MCF-7 (approximately 1×10^5 to 9×10^5 cells) are seeded on the surface of the micro-/nano-pillars of the cellular traction force detection device (number of micro-/nano-pillars not limited) and then cultured in 3dGRO™ Spheroid Medium (S3077) for more than three days to guide the formation of tumor cell aggregates.
S2, Applying the generated tumor cell aggregates to 5-Fu drug sensitivity experiments: 200 μM of 5-Fu is added to the tumor cell aggregates and cultured for one day. In the experiment, cellular traction force detection devices with tumor cell aggregates (along with the culture medium) before and after the addition of 5-Fu are monitored using the information acquisition unit (CCD sensor) within the cellular identification device to capture light reflection signals.

The subject of test [3] is A549 cells. The test is described as follows: Cell vitality by MTT assay in A549 cells treated with 5-FU. On the procedure:
as §1

Setting [4] is: various doses of 5-FU, FIGS. 11B and 11C.

The record followed here is US20240418626A1, “METHOD, DEVICE, AND SYSTEM FOR CELL IDENTIFICATION” (Ruixin (Fuzhou) Technology Co., Ltd., priority 2021, published 2024).

Turning to `O=c1[nH]cc(F)c(=O)[nH]1` [5-FU, 5-fluorouracil], the entries for the “time of significant decrease in cellular traction force” value in test [1] (0.5 μM treatment dose) and in test [1] (1 μM treatment dose) were 6 h and 3 h, respectively. In addition, the “cellular vitality as reflected by traction forces compared to control group DMSO” value in test [1] (different doses, treatment for 24 hours, FIG. 11B) was “decreases more significantly”. Further, in test [1] (setting [4]), the “cell vitality reflected by cellular traction forces” value is “dose-dependent decrease”. Moreover, the “reflection signals of tumor cell aggregates after treatment” value in test [2] was “significantly weaken”. In addition, in test [3] (after 12 hours of treatment, FIG. 11C), the “changes in cell vitality measured by the MTT assay” value is recorded as “not noticeable”. Further, the “cell vitality measured by the traditional MTT assay” value in test [3] (setting [4]) was “dose-dependent decrease”.
